# Like-named read-outs stand apart in the source and are kept apart here.
# Legend:
# [1] = tested on: velvetleaf; assay: Test A pre-/postemergence herbicide test; assay type: in vivo, Abutilon theophrasti; details: for Velvetleaf plant response rating: Preemergence, visual rating on 0 to 100 scale (0 no effect, 100 complete control)
# Method in brief: (§1)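 Planted in loam–sand blend; treated the same day preemergence by directed soil spray, while separately grown plants at one- to two-leaf stage got postemergence spray. Compared visually with untreated controls after approximately 10 days; 100 means complete control.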
# [2] = tested on: rice; assay: Test C flooded paddy test; assay type: in vivo, Oryza sativa; details: Flood
# Method in brief: (§2)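 2-leaf stage; flood 3 cm over soil; compound into paddy water; depth held; greenhouse 13–15 d; visual % control vs untreated (0 = none, 100 = complete); "-" = not tested.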
# [3] = tested on: crabgrass, large; assay: Test A pre-/postemergence herbicide test; assay type: in vivo, Digitaria sanguinalis; details: for Crabgrass, Large plant response rating: Preemergence, visual rating on 0 to 100 scale (0 no effect, 100 complete control)
# Method in brief: as §1
# [4] = tested on: chickweed; assay: Test C postemergence herbicide test; assay type: in vivo, Stellaria media
# Excerpt: At the same time, plants selected from these crop and weed species and also barley (winter barley, Hordeum vulgare), […]), chickweed (common chickweed, Stellaria media), deadnettle (henbit deadnettle, Lamium amplexicaule), and canarygrass (littleseed canarygrass, Phalaris minor) were planted in pots containing Redi-Earth® planting medium (Scotts Company, 14111 Scottslawn Road, Marysville, Ohio 43041) comprising spaghnum peat moss, vermiculite, wetting agent and starter nutrients and treated with postemergence applications of test chemicals formulated in the same manner. Plants ranged in height from 2 to 18 cm (1- to 4-leaf stage) for postemergence treatments. Treated plants and controls were maintained in a greenhouse for 13 to 15 days, after which time all species were compared to controls and visually evaluated. Plant response ratings, summarized in Table C, are based on a scale of 0 to 100 where 0 is no effect and 100 is complete control. A dash (-) response means no test result.
# [5] = tested on: barnyardgrass; assay: Test C flooded paddy test; assay type: in vivo, Echinochloa crus-galli; details: Flood
# Method in brief: as §2
# [6] = tested on: ducksalad; assay: Test C flooded paddy test; assay type: in vivo, Heteranthera limosa; details: Flood
# Method in brief: as §2
# [7] = tested on: morningglory; assay: Test A pre-/postemergence herbicide test; assay type: in vivo, Ipomoea spp.; details: for Morningglory plant response rating: Preemergence, visual rating on 0 to 100 scale (0 no effect, 100 complete control)
# Method in brief: as §1
# [8] = tested on: sedge, umbrella; assay: Test C flooded paddy test; assay type: in vivo, Cyperus difformis; details: Flood
# Method in brief: as §2
# [9] = tested on: ryegrass, Italian; assay: Test A pre-/postemergence herbicide test; assay type: in vivo, Lolium multiflorum
# Method in brief: as §1
# [10] = tested on: ragweed; assay: Test A pre-/postemergence herbicide test; assay type: in vivo, Ambrosia elatior
# Method in brief: as §1
# [11] = tested on: galium; assay: Test A postemergence herbicide test; assay type: in vivo, Galium aparine
# Method in brief: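 Plants at the one- to two-leaf stage, 2–10 cm tall, grown in loam/sand pots, received postemergence sprays of the test chemicals. After about 10 days in the greenhouse, injury was scored visually against untreated controls on a 0–100 scale (0 none, 100 complete control).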
# [12] = 31 g ai/ha, scale of 0 to 100 where 0 is no effect and 100 is complete control, 13 to 15 days
# [13] = 62 g ai/ha, scale of 0 to 100 where 0 is no effect and 100 is complete control, 13 to 15 days
# [14] = 125 g ai/ha, scale of 0 to 100 where 0 is no effect and 100 is complete control, 13 to 15 days
# [15] = 31 g ai/ha, scale 0 (no effect) to 100 (complete control)
# [16] = 62 g ai/ha, scale 0 to 100 (0 no effect, 100 complete control)
# [17] = 125 g ai/ha, scale 0 to 100 (0 no effect, 100 complete control)
# [18] = 250 g ai/ha, scale 0 to 100 (0 no effect, 100 complete control)
# [19] = Postemergence, 125 g ai/ha, 0 to 100 scale, 0 no effect, 100 complete control
# [20] = Postemergence, 500 g ai/ha, 0 to 100 scale (0 no effect, 100 complete control)
# [21] = Preemergence, 125 g ai/ha, visual rating on 0 to 100 scale (0 no effect, 100 complete control)
# [22] = preemergence, 500 g ai/ha, 0 to 100 scale
# [23] = 500 g ai/ha, 0 to 100 scale (0 no effect, 100 complete control)
# [24] = 125 g ai/ha, visual rating, 0 to 100 scale, 0 no effect, 100 complete control, approximately 10 days, preemergence
# [25] = Postemergence, 125 g ai/ha, 0 to 100 scale, 0 is no effect, 100 is complete control
# [26] = preemergence, 500 g ai/ha, 0 to 100 scale, 0 is no effect and 100 is complete control
# [27] = 31 g ai/ha, scale 0 to 100 (0 no effect, 100 complete control)
# [28] = 62 g ai/ha, scale 0 (no effect) to 100 (complete control)
# [29] = Postemergence, 125 g ai/ha, visual rating on 0 to 100 scale (0 no effect, 100 complete control), approx. 10 days
# [30] = Preemergence, 125 g ai/ha, 0 to 100 scale where 0 is no effect and 100 is complete control
# [31] = Preemergence, 500 g ai/ha, visual rating on 0 to 100 scale (0 no effect, 100 complete control)
# [32] = 125 g ai/ha, visual rating on 0 to 100 scale (0 no effect, 100 complete control), approx. 10 days
smiles,measurement,setting,value
"O=C1NCC(c2ccc(C(F)(F)F)cc2)C1C(=O)Nc1cccc(F)c1F (stereo not shown) [Compound 80, N-(2,3-difluorophenyl)-2-oxo-4-[4-(trifluoromethyl)phenyl]-3-pyrrolidinecarboxamide]",pest or weed control at 125 g/ha,"[1]; Abutilon theophrasti, post-emergence, 240 h, Postemergence, 125 g ai/ha, 0 to 100 scale, 0 no effect, 100 complete control, read-out: Plant response rating, Velvetleaf",10%
same,pest or weed control at 500 g/ha,"[1]; Abutilon theophrasti, post-emergence, 240 h, Postemergence, 500 g ai/ha, 0 to 100 scale (0 no effect, 100 complete control), read-out: Plant response rating, Velvetleaf",60%
same,pest or weed control at 500 g/ha,"[1]; Abutilon theophrasti, pre-emergence, 240 h, preemergence, 500 g ai/ha, 0 to 100 scale, read-out: Plant response rating, Velvetleaf",30%
same,Velvetleaf plant response rating,[1]; 125 g ai/ha,0
same,"Plant response rating, Rice",[2]; [12],0
same,"Plant response rating, Rice",[2]; [13],0
same,"Plant response rating, Rice",[2]; [14],0
same,"Plant response rating, Rice","[2]; 250 g ai/ha, scale 0 to 100",0
same,pest or weed control at 125 g/ha,"[3]; Digitaria sanguinalis, post-emergence, 240 h, Postemergence, 125 g ai/ha, 0 to 100 scale, 0 no effect, 100 complete control, read-out: Plant response rating, Crabgrass, Large",80%
same,pest or weed control at 500 g/ha,"[3]; Digitaria sanguinalis, post-emergence, 240 h, Postemergence, 500 g ai/ha, 0 to 100 scale (0 no effect, 100 complete control), read-out: Plant response rating, Crabgrass, Large",90%
same,pest or weed control at 500 g/ha,"[3]; Digitaria sanguinalis, pre-emergence, 240 h, preemergence, 500 g ai/ha, 0 to 100 scale, read-out: Plant response rating, Crabgrass, Large",90%
same,"Crabgrass, Large plant response rating",[3]; 125 g ai/ha,90
same,"Plant response rating, Chickweed",[4]; [15],70
same,"Plant response rating, Chickweed",[4]; [16],85
same,"Plant response rating, Chickweed",[4]; [17],90
same,"Plant response rating, Chickweed",[4]; [18],90
same,"Plant response rating, Barnyardgrass",[5]; [12],0
same,"Plant response rating, Barnyardgrass",[5]; [13],0
same,"Plant response rating, Barnyardgrass",[5]; [14],0
same,"Plant response rating, Barnyardgrass","[5]; 250 g ai/ha, scale 0 to 100",20
same,"Plant response rating, Ducksalad",[6]; [12],70
same,"Plant response rating, Ducksalad",[6]; [13],70
same,"Plant response rating, Ducksalad",[6]; [14],100
same,"Plant response rating, Ducksalad","[6]; 250 g ai/ha, scale 0 to 100",100
same,pest or weed control at 125 g/ha,"[7]; Ipomoea, post-emergence, 240 h, Postemergence, 125 g ai/ha, 0 to 100 scale, 0 no effect, 100 complete control, read-out: Plant response rating, Morningglory",0%
same,pest or weed control at 500 g/ha,"[7]; Ipomoea, post-emergence, 240 h, Postemergence, 500 g ai/ha, 0 to 100 scale (0 no effect, 100 complete control), read-out: Plant response rating, Morningglory",0%
same,pest or weed control at 500 g/ha,"[7]; Ipomoea, pre-emergence, 240 h, preemergence, 500 g ai/ha, 0 to 100 scale, read-out: Plant response rating, Morningglory",0%
same,Morningglory plant response rating,[7]; 125 g ai/ha,0
same,"Plant response rating, Sedge, Umbrella",[8]; [12],35
same,"Plant response rating, Sedge, Umbrella",[8]; [13],35
same,"Plant response rating, Sedge, Umbrella",[8]; [14],55
same,"Plant response rating, Sedge, Umbrella","[8]; 250 g ai/ha, scale 0 to 100",65
Cc1ccccc1NC(=O)C1C(=O)NCC1c1cccc(C(F)(F)F)c1 (racemic) [Compound 109],"Plant response rating, Ryegrass, Italian",[9]; [19],20
same,"Plant response rating, Ryegrass, Italian",[9]; [20],30
same,"Ryegrass, Italian plant response rating",[9]; [21],0
same,"Plant response rating, Ryegrass, Italian",[9]; [22],50
same,"Plant response rating, Ragweed",[10]; [19],0
same,"Plant response rating, Ragweed",[10]; [20],0
same,Ragweed plant response rating,[10]; [21],0
same,"Plant response rating, Ragweed",[10]; [22],0
same,"Plant response rating, Galium","[11]; 125 g ai/ha, 0 to 100 scale, 0 no effect, 100 complete control",30
same,"Plant response rating, Galium",[11]; [23],60
same,"Plant response rating, Chickweed",[4]; [15],0
same,"Plant response rating, Chickweed",[4]; [16],0
same,"Plant response rating, Chickweed",[4]; [17],0
same,"Plant response rating, Chickweed",[4]; [18],0
O=C1NCC(c2ccc(C(F)(F)F)cc2)C1C(=O)Nc1cccc(F)c1F (racemic) [Compound 202],"Plant response rating, Ryegrass, Italian",[9]; [24],60
same,"Plant response rating, Ryegrass, Italian",[9]; [25],30
same,"Ryegrass, Italian plant response rating (0 to 100 scale, 0 is no effect, 100 is complete control)","[9]; Postemergence, 500 g ai/ha",40
same,"Plant response rating, Ryegrass, Italian",[9]; [26],60
same,"Plant response rating, Ragweed",[10]; [24],50
same,"Plant response rating, Ragweed",[10]; [25],30
same,"Ragweed plant response rating (0 to 100 scale, 0 is no effect, 100 is complete control)","[10]; Postemergence, 500 g ai/ha",50
same,"Plant response rating, Ragweed",[10]; [26],90
same,"Plant response rating, Galium","[11]; 125 g ai/ha, 0 to 100 scale, 0 is no effect, 100 is complete control",60
same,"Galium plant response rating (0 to 100 scale, 0 is no effect, 100 is complete control)",[11]; 500 g ai/ha,60
same,"Plant response rating, Chickweed",[4]; [27],80
same,"Plant response rating, Chickweed",[4]; [28],80
same,"Plant response rating, Chickweed",[4]; [17],85
same,"Plant response rating, Chickweed",[4]; [18],85
O=C1NCC(c2cccc(Br)c2)C1C(=O)Nc1ccc(F)c(F)c1F (stereo not shown) [Compound 310],"Plant response rating, Ryegrass, Italian",[9]; [29],30
same,"Plant response rating, Ryegrass, Italian",[9]; [20],30
same,"Plant response rating, Ryegrass, Italian",[9]; [30],30
same,"Ryegrass, Italian plant response rating",[9]; [31],40
same,"Plant response rating, Ragweed",[10]; [29],20
same,"Plant response rating, Ragweed",[10]; [20],30
same,"Plant response rating, Ragweed",[10]; [30],0
same,Ragweed plant response rating,[10]; [31],0
same,"Plant response rating, Galium",[11]; [32],20
same,"Plant response rating, Galium",[11]; [23],20
same,"Plant response rating, Chickweed",[4]; [27],20
same,"Plant response rating, Chickweed",[4]; [28],45
same,"Plant response rating, Chickweed",[4]; [17],90
same,"Plant response rating, Chickweed",[4]; [18],85
O=C1NCC(c2cccc(C(F)(F)F)c2)C1C(=O)Nc1ccc(F)c(F)c1F (stereo not shown) [Compound 345],"Plant response rating, Ryegrass, Italian",[9]; [29],50
same,"Plant response rating, Ryegrass, Italian",[9]; [30],0
same,"Ryegrass, Italian plant response rating",[9]; [31],40
same,"Plant response rating, Ragweed",[10]; [29],0
same,"Plant response rating, Ragweed",[10]; [30],0
same,Ragweed plant response rating,[10]; [31],0
same,"Plant response rating, Galium",[11]; [32],60
same,"Plant response rating, Chickweed",[4]; [18],30
O=C1NCC(c2ccc(F)c(Cl)c2)C1C(=O)Nc1ccccc1F (stereo not shown) [Compound 60],"Plant response rating, Velvetleaf",[1]; [19],0
same,"Plant response rating, Velvetleaf",[1]; [20],0
same,Velvetleaf plant response rating,[1]; 125 g ai/ha,0
same,"Plant response rating, Velvetleaf",[1]; [22],0
same,"Plant response rating, Crabgrass, Large",[3]; [19],80
same,"Plant response rating, Crabgrass, Large",[3]; [20],90
same,"Crabgrass, Large plant response rating",[3]; 125 g ai/ha,90
same,"Plant response rating, Crabgrass, Large",[3]; [22],90
same,"Plant response rating, Chickweed",[4]; [15],0
same,"Plant response rating, Chickweed",[4]; [16],10
same,"Plant response rating, Chickweed",[4]; [17],30
same,"Plant response rating, Morningglory",[7]; [19],0
same,"Plant response rating, Morningglory",[7]; [20],0
same,Morningglory plant response rating,[7]; 125 g ai/ha,0
same,"Plant response rating, Morningglory",[7]; [22],0

# From US10294202B2, “Pyrrolidinones as herbicides” (FMC Corporation, priority 2013, dated 2019)
